Reference: publication PMC6691761, “Potential multifunctional agents with anti-hepatoma and anti-inflammation properties by inhibiting NF-кB activation” (Journal of Enzyme Inhibition and Medicinal Chemistry, 2019)

Columns and labels:
HepG2 xenografts = HepG2 xenografts growth in nude mice; format: in vivo, Balb/c nude mice
Protocol: (§1) The HepG2 cells xenografts were established using the Balb/c nude mice (female, 7-week-old, 17–19 g, n = 30) (Shanghai Laboratory Animal Center, Shanghai Shi, China) were used to investigate the anti-hepatoma effect of 96. Animal experiments were reviewed and approved by the Binzhou Medical University Experimental Animal Committee. Briefly, HepG2 cells (1 × 10^7/0.2 ml PBS/mouse) were inoculated subcutaneously. Three days after the inoculation, the mice were randomly divided into five groups: the saline treated group (Control), 96 (0.2 mg/kg) group, 96 (1.0 mg/kg) treated group, 96 (5.0 mg/kg) treated group, and DOX (1.0 mg/kg) treated group. 96 were dissolved in saline containing 1% of DMSO and administered intraperitoneally every 2 d for 20 days. DOX was also administered intraperitoneally every 2 d for 20 d. The body weight and HepG2 xenografts volumes were recorded from the day of treatment, and xenografts volumes were calculated using the equation: tumour volume = length×(width)[2]×π/6. At the end of the experiment, mice were sacrificed and the xenografts were obtained for western blotting, HE staining and immunohistochemistry staining.

[1] = tested on: BAX expression in HepG2 cells; assay: Western blot, BAX expression in HepG2 cells; format: cell-based, human; conditions: HepG2, 1.0, 2.0, and 4.0 μM
Protocol: (§2) The HepG2 cells were treated with BAP 96 at different concentrations (1.0, 2.0, and 4.0 µM) for 3 h, and washed twice by PBS. The cells were lysed and the extracted proteins of cell lysates were separated by 10% SDS-PAGE gel electrophoresis, then transferred onto polyvinylidene fluorides membranes. The membranes were probed with antibodies and visualized using an enhanced chemiluminescence (ECL) detection kit.

[2] = tested on: p-p65 in TNF-α-stimulated HepG2 cells; assay: TNF-α-stimulated phosphorylation of p65 in HepG2 cells; format: cell-based, human; conditions: HepG2, 1.0, 2.0, and 4.0 μM
Protocol: as §2
(§3) It is known that NF-κB has been implicated in the crossroad of inflammation and cancer[25]^,[26]. In our previous study, some BAPs (such as 23 and 67) could inhibit NF-κB activation by inhibiting the phosphorylation of NF-κB (P65) and IκB[13]^,[14]. Herein, it is an urgent to resolve whether 96 has the same mechanism of action as 23 and 67. Therefore, the RAW264.7 cells were pretreated with LPS, and then treated with different concentrations (1.0, 2.0, 4.0 μM) of 96. […] Similarly, the HepG2 cells were pretreated with TNF-α, then treated with different concentrations (1.0, 2.0, and 4.0 μM) of 96.

[3] = tested on: human gastric adenocarcinoma cells (SGC7901); assay: Cytotoxicity, MTT assay, SGC7901; format: cell-based
From the text: (§4) Compounds 83–102 were screened against human neoplastic cell lines, such as human breast cancer cells (MCF-7), human colon cancer cells (HCT116), human lung carcinoma cells (A549), human gastric adenocarcinoma cells (SGC7901), human liver hepatocellular carcinoma cell line (HepG2), human cervical carcinoma cells (HeLa), human acute mononuclear granulocyte leukaemia (THP-1), and human normal hepatic cell line (LO2) using modified MTT assay. All the cells were obtained from the American Type Culture Collection (ATCC, Manassas, VA). The cells were cultured in DMEM or 1640. Positive controls (Doxorubicin (DOX) and Curcumin) and BAPs were initially dissolved in dimethyl sulphoxide (DMSO). Experimental concentration of DMSO was always 0.1% (v/v). The concentrations of BAPs and positive controls were 50, 20, 10, 5, 2.5, 1, 0.5, 0.1, 0.05, and 0.01 μg/mL.
(§5) The cells (1 × 10^4 cells/well) were seeded in a 96-well plate and incubated for 24 h. Cells treated with serial concentrations of drugs were incubated for another 24 h. After the media removed, 20 μL of MTT (5 mg/mL) solution was added and incubated for 4 h at 37 °C. The MTT solution was removed and then 150 μL of DMSO was added. The optical density was measured with a multi-well plate reader (TECAN, Mӓnnedorf, Switzerland) at 570 nm. The results are expressed as a decrease in the cell viability (%) in comparison to untreated controls. The concentration of each compound was examined in triplicate, and the IC50 values are expressed in Table 1.

[4] = tested on: NF-κB p65 nuclear translocation in TNF-α-stimulated HepG2 cells; assay: NF-κB p65 nuclear translocation, immunofluorescence, HepG2; format: cell-based, human; conditions: HepG2, TNF-α 10 ng/mL, 4.0 μM
Protocol: RAW264.7 cells were pretreated in 96-well plates with LPS (1 μg/mL) for 15 min and then treated with 96 for 2 h. Similarly, HepG2 cells were pretreated with TNF-α (10 ng/mL) for 15 min and then treated with 96 for 4 h. The cells were fixed with 2% paraformaldehyde for 15 min at 37 °C and permeabilized using 0.1% Triton X-100 for 10 min at RT. After blockage with 3% BSA for 30 min, the cells were incubated with anti-NF-κB p65 antibody (NOVUS BIOLOGICALS, Colorado, USA) at 4 °C overnight. After washing, the anti-mouse Alexa488-conjugated secondary antibody (Jackson Immuno Research, West Grove, PA) was incubated for 30 min at RT. After washed with PBS, the cells were incubated in 4-6-diamidino-2-phenyindole (DAPI; Sigma, St. Louis, MO) for 15 min in the dark at RT. The cell images were simultaneously viewed using a microscopy system in High Throughput Screen (Operetta, PerkinElmer, Waltham, MA).

[5] = tested on: human cervical carcinoma cells (HeLa); assay: Cytotoxicity, MTT assay, HeLa; format: cell-based
From the text: as §4, §5

[6] = tested on: Bcl-2 expression in HepG2 xenografts; assay: Immunohistochemistry staining of Bcl-2 in HepG2 xenografts; format: in vivo, Balb/c nude mice; conditions: 96 5.0 mg/kg, DOX 1.0 mg/kg, versus model group
Protocol: as §1
The HepG2 xenografts tissues were embedded using the paraffin, and sectioned for HE staining and immunohistochemistry staining. HE staining was performed routinely. The immunohistochemistry staining carried out as following. […]

[7] = tested on: p-IκBα in TNF-α-stimulated HepG2 cells; assay: TNF-α-stimulated phosphorylation of IκBα in HepG2 cells; format: cell-based, human; conditions: HepG2, 1.0, 2.0, and 4.0 μM
Protocol: as §2, §3

[8] = tested on: C-caspase-3 expression in HepG2 xenografts; assay: Western blot, C-caspase-3 in HepG2 xenografts; format: in vivo, Balb/c nude mice; conditions: 0.2, 1.0 and 5.0 mg/kg
Protocol: as §1
Western blotting was performed to detect the expression of Bcl-2, Bax and C-caspase-3 in HepG2 xenografts. Fresh HepG2 xenografts tissues were lysed and the obtained proteins were processed as the protein obtained from the HepG2 cells.

[9] = quotient of IC50 towards LO2 cells

For `CN1CC(=Cc2cccc(N=Cc3cc(Br)ccc3O)c2)C(=O)C(=Cc2ccccc2F)C1` [Compound 96], the “Growth of HepG2 xenografts” value (HepG2 xenografts; 0.2 mg/kg intraperitoneally every 2 d for 20 days) was “slightly decreased the growth of HepG2 xenografts”, the “Growth of HepG2 xenografts” value (HepG2 xenografts; 1.0 mg/kg intraperitoneally every 2 d for 20 days) was “slightly decreased the growth of HepG2 xenografts” and the “Growth of HepG2 xenografts” value (HepG2 xenografts; 5.0 mg/kg intraperitoneally every 2 d for 20 days) was “significantly inhibited the growth of HepG2 xenografts”. For the same molecule, the “Expression of pro-apoptotic protein BAX” value [1] was “dose-dependently increased”, the “Phosphorylation of p65 induced by TNF-α” value [2] was “dose-dependent downward trend” and the IC50 ([3]; Homo sapiens, SGC-7901, MTT, 24 h) was 2400 ± 800 nM. The “SGC7901 SI (selectivity index)” value [3, 9] was 8.3, the p65 nuclear translocation [4] was “prevented the p65 nuclear translocation” and the IC50 ([5]; Homo sapiens, HeLa, MTT, 24 h) was 2100 ± 800 nM. The “HeLa SI (selectivity index)” value [5, 9] was 9.5, the “Bcl-2 expression, immunohistochemistry” value [6] was “significantly reduced” and the “Phosphorylation of IκBα induced by TNF-α” value [7] was “dose-dependent downward trend”. The “Expression of C-caspase-3 in HepG2 xenografts” value [8] was “significantly increased in a dose-dependent manner”.
